Assay results published in article PMC12749748, “Chemically-induced degradation of the endoplasmic-reticulum stress sensor IRE1 by a VHL-recruiting chimera” (Nature Communications, 2025).
One block for each compound: values may come before it.

What was measured:
[1] = test system: OPM2 cells; experiment: Incucyte cell confluency, OPM2 cells; type: cell-based; conditions: OPM2 shIRE1 cells, titration
Procedure: (§1) For non-adherent AMO1, KMS27, and OPM2 cells, cells were plated at 5000 cells/well in ultra-low attachment (ULA) 96-well plates (Costar, #7007) and centrifuged at 600 × g for 5 min for spheroid formation. For adherent U2OS and Colo201 cells, 2000 cells/well were seeded in a clear flat-bottom 96-well plate (Costar, #3595). Treatments were added at the time of cell seeding, and cells were cultured in complete RPMI media to a final volume of 200 µL/well. Cultures were maintained at 37 °C throughout the duration of the experiment. Cell confluency was tracked using the Incucyte live-cell imaging system (Sartorius S3). Picture frames were captured every 4 h with a 4× objective, and cell confluency (%) from the total well area as a function of time was calculated using the Incucyte software (version 2023 A Rev2).

[2] = test system: AMO1 cells; experiment: Incucyte cell confluency, AMO1 cells; type: cell-based
Procedure: as §1

[3] = test system: KMS27 cells; experiment: Incucyte cell confluency, KMS27 cells; type: cell-based; conditions: KMS27 shIRE1 cells, titration
Procedure: as §1

[4] = test system: IRE1-dependent or -independent cell lines; experiment: Incucyte, IRE1-dependent or -independent cell lines together; type: cell-based
Procedure: as §1

[5] = biological target: IRE1 (Homo sapiens, UniProt O75460); experiment: Endogenous IRE1 protein levels in AMO1 or H929 cells (immunoblot); type: cell-based; parameters: Immunoblot (IB) analysis of endogenous IRE1 depletion in AMO1 cells; endogenous in cells; host or cells: AMO1, KMS27, H929; conditions: 1 µM, 4 hr
Procedure: (§2) Cells were lysed in buffer containing 20 mM HEPES 7.2, 150 mM NaCl, and 1% Triton X-100, supplemented with fresh protease and phosphatase inhibitors (Invitrogen, #78440), cleared by centrifugation at 12,000 × g for 10 min, and analyzed by BCA protein assay (Thermo Fisher Scientific, #23227). Equal protein amounts were loaded, separated by SDS-PAGE, electrotransferred to nitrocellulose membranes using the iBLOT2 system (Invitrogen), and blocked in 5% nonfat milk solution for 60 min. Membranes were probed with primary antibodies at 1:1000 dilution in 5% milk at 4 °C overnight. Signal was detected using appropriate horseradish peroxidase (HRP)-conjugated secondary antibodies at 1:10,000 in 5% milk at room temperature for 1–2 h. Bands were visualized by the Azure 600 western blot imaging system (Azure Biosystems). For in vitro ubiquitination assays performed with Me-Ub, bands were visualized by the Odyssey CLx Imager (LI‑COR) after incubating the blots with the IRDye 800CW (LI-COR) secondary antibodies at 1:10,000 in Intercept Blocking Buffer (LI-COR) at room temperature for 1–2 h.

[6] = biological target: T1, IRE1:VHL (Homo sapiens, UniProt O75460+P40337); experiment: NanoBRET IRE1:VHL interaction, WT IRE1, HEK293T cells; type: cell-based; parameters: N2731 (HaloTag-VHL); host or cells: HEK293T; conditions: HEK293T, 1 µM G6374 and a titration of G5758
Procedure: 8 × 10^5 293T cells per well were seeded in 6-well plates (Costar, #3516) and incubated at 37 °C, 5% CO2 for 6 h. A mixture of 0.2 µg ERN1 (IRE1)-NanoLuc Fusion Vector (Promega, NV1321), 2 µg HaloTag-VHL Fusion Vector (Promega, N2731), 6 µl FuGENE HD Transfection Reagent (Promega, E2311), and 100 µL Opti-MEM I reduced serum medium (Gibco, #31985062) per well was incubated at room temperature for 20 min before adding to cells. For expression of IRE1 mutants, site-directed mutagenesis was performed using the ERN1-NanoLuc Fusion Vector as the DNA template, and the transfection mixture was prepared in the same way as WT IRE1. After 18 h, cells from 6-well plates were trypsinized, resuspended in Opti-MEM I reduced serum medium, and reseeded into 96-well plates (Costar, #3917), with or without the addition of HaloTag NanoBRET 618 Ligand (Promega, G9801). […] After 2 h of G6374 treatment, NanoBRET Nano-Glo Substrate (Promega, N1571) was added to cells. The 96-well plates were imaged by GloMax Discover Microplate Reader (Promega, GM3000) with the default “BRET: NanoBRET 618” protocol (Donor: 450 BP; Acceptor: 600 LP; Integration: 0.3 s). Data analysis was performed according to the user manual.

[7] = biological target: T1, IRE1:VHL; experiment: co-IP of endogenous VHL with endogenous IRE1 from AMO1 cells; type: cell-based; parameters: co-IP of endogenous VHL with endogenous IRE1 from AMO1 cells; endogenous in cells; host or cells: AMO1; conditions: G5758 in excess of G6374
Procedure: as §2
IRE1.LD antibodies were conjugated to agarose beads using the AminoLink® Plus Immobilization Kit (Thermo Fisher, #44894). […]

[8] = test system: WDR5; parameters: method as in earlier work; conditions: VHL:PROTAC:WDR5; cited from earlier work
[9] = test system: BRD4; parameters: method as in earlier work; conditions: VHL:PROTAC:BRD4; cited from earlier work
[10] = biological target: VCB (VHL:EloC:EloB) (Homo sapiens, UniProt P40337); experiment: Surface plasmon resonance, binary interaction with VCB; type: binding; conditions: SPR, immobilised VCB, 20 °C, 1 to 1 kinetic model
Procedure: All SPR experiments in this paper were recorded on a Biacore S200 instrument; all protein captures and data collection were at 20 °C.
For binary interactions with G6374: a Xantec SAHC 200 M (streptavidin) chip was inserted into the instrument and primed into running buffer [50 mM HEPES (pH 7.4), 150 mM NaCl, 0.001% Tween 20, 0.2% PEG3350, 0.25 mM TCEP, and 2% DMSO]. Biotinylated human IRE1.KR protein was captured on FC2 to 2-4000 RU, biotinylated VHL in complex with Elongin B (VHL/EloB) was captured on FC4 to 1-2000 RU, data were collected, and all referenced to FC1. Affinity for G6374 was measured using a titration series, injected from low to high with an 8-point, 2-fold dilution dose response with a top concentration of 0.5 μM in both single cycle (single cycle kinetics (SCK)) and multi cycle kinetics (MCK) formats. For MCK experiments, an association time of 45 s and a dissociation time of 200 s with a flow rate of 50 μL/min. For SCK experiments, an association time of 45 s and a dissociation time of 2000 s with a flow rate of 50 μL/min were used. All data were analyzed using Insight software (Cytiva) using a 1 to 1 kinetic binding model.

- degradation of cellular IRE1 [5]: does not degrade cellular IRE1
SMILES: Cc1ncsc1-c1ccc(CNC(=O)[C@@H]2C[C@H](O)CN2C(=O)[C@@H](NC(=O)CCCCN2CCN(C3CCC(Nc4ncc5ccc(=O)n(C(C)C)c5n4)CC3)CC2)C(C)(C)C)cc1 (some centres unmarked) [G2642]
- growth inhibition (cell confluency) [1]: neither its epimer control G2642, nor the VHL ligand VH032, induced a concentration-dependent growth inhibition
- growth inhibition (cell confluency) ([2]; AMO1 shIRE1 cells, titration): neither its epimer control G2642, nor the VHL ligand VH032, induced a concentration-dependent growth inhibition
- growth inhibition (cell confluency) [3]: neither its epimer control G2642, nor the VHL ligand VH032, induced a concentration-dependent growth inhibition
- anti-proliferative activity [4]: no anti-proliferative activity

SMILES: O=S(=O)(Cc1ccccc1)Nc1c(F)cc(Oc2ncccc2-c2ccnc(N[C@@H]3CNC[C@@H](F)C3)n2)c(F)c1F [G5758, reference compound]
- disruption of G6374-induced IRE1:VHL interaction (NanoBRET) [6]: could disrupt G6374-induced interaction between IRE1 and VHL
- competition with G6374-induced IRE1:VHL association and IRE1 depletion (co-IP) [7]: attenuated the induced association between IRE1 and VHL as well as the depletion of IRE1

SMILES: Cc1ncsc1-c1ccc([C@H](C)NC(=O)[C@@H]2C[C@@H](O)CN2C(=O)[C@@H](NC(=O)CNC(=O)c2ccc(F)c(-c3ccc(N4C[C@@H](C)N(C)[C@@H](C)C4)c(NC(=O)c4c[nH]c(=O)cc4C(F)(F)F)c3)c2)C(C)(C)C)cc1 [MS67]
- DC50 [8]: 3.7 nM
- Dmax [8]: 94%

SMILES: CC(=O)c1cnc2ccc(-c3cc(Cl)c(O)c(Cl)c3)nc2c1N[C@H]1CC[C@H](CN(C)C)CC1 [OTSSP167, reference compound]
- proliferation of AMO1 cells ([2]; at 3X the IC50 of OTSSP167): did not

- ka [10]: 550000 M⁻¹ s⁻¹
- kd [10]: 0.13 s⁻¹
SMILES: CC(=O)N[C@H](C(=O)N1C[C@H](O)C[C@H]1C(=O)NCc1ccc(-c2scnc2C)cc1)C(C)(C)C [VH032, reference compound]
